Laboratory results reported in the supplement of paper PMC10307832.

Key:
Assay in all cases: relative viability (nuclei count vs DMSO), 5 days (fraction); higher = more cells survive
[1] = compound: CN1C=C(C2=CC=CC=C21)/C=C\3/C4=C(C=CC=N4)NC3=O + Cc1nc(Nc2ncc(C(=O)Nc3c(C)cccc3Cl)s2)cc(N2CCN(CCO)CC2)n1 [Dasatinib] (partner 0.075 µM)
Summary of the method: (§1)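 Relative viability equals treated-well nuclei counts divided by vehicle-well nuclei counts. Counts came from 4× images of lung cancer cell lines grown in 1536-well plates for 5 days after pin-tool dosing on the day after seeding. Dosing used one drug alone or a fixed anchor-drug dose plus five library-drug doses (not always all listed) in √10 steps, and values are medians of duplicate plates.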

[2] = compound: CC(=O)Nc1cccc(-n2c(=O)n(C3CC3)c(=O)c3c(Nc4ccc(I)cc4F)n(C)c(=O)c(C)c32)c1 [Trametinib] + Nc1ncn([C@H]2C[C@H](O)[C@@H](CO)O2)c(=O)n1 [Decitabine] (partner 2 µM)
Summary of the method: as §1

[3] = compound: CN1C=C(C2=CC=CC=C21)/C=C\3/C4=C(C=CC=N4)NC3=O + CS(=O)(=O)CCNCc1ccc(-c2ccc3ncnc(Nc4ccc(OCc5cccc(F)c5)c(Cl)c4)c3c2)o1 [Lapatinib] (partner 2 µM)
Summary of the method: as §1

[4] = compound: CC(=O)Nc1cccc(-n2c(=O)n(C3CC3)c(=O)c3c(Nc4ccc(I)cc4F)n(C)c(=O)c(C)c32)c1 [Trametinib] + O=C(CCCCCCC(=O)Nc1ccccc1)NO [Vorinostat] (partner 1 µM)
Summary of the method: as §1

With UMC-11 the relative viability ([1]; first compound 0.02 µM) was 0.556, the relative viability ([1]; first compound 0.06325 µM) was 0.449 and the relative viability ([1]; first compound 0.2 µM) was 0.367. For the same cell line, the relative viability ([1]; first compound 0.6325 µM) was 0.41, the relative viability ([1]; first compound 2 µM) was 0.632 and the relative viability ([2]; first compound 0.0025 µM) was 0.548. The relative viability ([2]; first compound 0.007906 µM) was 0.674, the relative viability ([2]; first compound 0.25 µM) was 0.471 and the relative viability ([3]; first compound 0.02 µM) was 0.854. It also gave a relative viability ([3]; first compound 0.06325 µM) of 0.901, a relative viability ([3]; first compound 0.2 µM) of 0.632 and a relative viability ([3]; first compound 0.6325 µM) of 0.897. It also gave a relative viability ([3]; first compound 2 µM) of 1.33, a relative viability ([4]; first compound 0.0025 µM) of 0.327 and a relative viability ([4]; first compound 0.007906 µM) of 0.352. For the same cell line, the relative viability ([4]; first compound 0.07906 µM) was 0.313 and the relative viability ([4]; first compound 0.25 µM) was 0.294.
